Laboratory results from PubChem BioAssay (NCI).
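Results reflect a 48-hour exposure of cells in 96-well plates to compound at five concentrations. GI50: concentration for 50% inhibition of growth. TGI marks complete inhibition of growth.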

How the values were obtained:
Assay in all cases: NCI-60 cell line screen, 48 h
NCI/ADR-RES ovarian = system: NCI/ADR-RES ovarian
TK-10 renal = system: TK-10 renal
HCC-2998 colon = system: HCC-2998 colon
MDA-MB-468 breast = system: MDA-MB-468 breast
SNB-19 CNS = system: SNB-19 CNS
SK-MEL-2 melanoma = system: SK-MEL-2 melanoma
HS 578T breast = system: HS 578T breast
MDA-MB-231 breast = system: MDA-MB-231 breast
BT-549 breast = system: BT-549 breast
T-47D breast = system: T-47D breast
HCT-116 colon = system: HCT-116 colon
MCF7 breast = system: MCF7 breast
CAKI-1 renal = system: CAKI-1 renal
SW-620 colon = system: SW-620 colon
NCI-H522 lung = system: NCI-H522 lung
IGROV1 ovarian = system: IGROV1 ovarian
NCI-H226 lung = system: NCI-H226 lung
DU-145 prostate = system: DU-145 prostate
OVCAR-8 ovarian = system: OVCAR-8 ovarian
SK-OV-3 ovarian = system: SK-OV-3 ovarian
OVCAR-4 ovarian = system: OVCAR-4 ovarian
NCI-H23 lung = system: NCI-H23 lung
A498 renal = system: A498 renal
786-0 renal = system: 786-0 renal
RXF 393 renal = system: RXF 393 renal
UACC-257 melanoma = system: UACC-257 melanoma
SR leukemia = system: SR leukemia
CCRF-CEM leukemia = system: CCRF-CEM leukemia
UO-31 renal = system: UO-31 renal
COLO 205 colon = system: COLO 205 colon
U251 CNS = system: U251 CNS
MALME-3M melanoma = system: MALME-3M melanoma
HCT-15 colon = system: HCT-15 colon
SK-MEL-5 melanoma = system: SK-MEL-5 melanoma
SF-295 CNS = system: SF-295 CNS
EKVX NSCLC = system: EKVX NSCLC
SF-539 CNS = system: SF-539 CNS
HT29 colon = system: HT29 colon
OVCAR-5 ovarian = system: OVCAR-5 ovarian
ACHN renal = system: ACHN renal
LOX IMVI melanoma = system: LOX IMVI melanoma
MDA-MB-435 = system: MDA-MB-435
SN12C renal = system: SN12C renal
K-562 leukemia = system: K-562 leukemia
PC-3 prostate = system: PC-3 prostate
SF-268 CNS = system: SF-268 CNS
RPMI-8226 leukemia = system: RPMI-8226 leukemia
UACC-62 melanoma = system: UACC-62 melanoma
KM12 colon = system: KM12 colon
HOP-92 NSCLC = system: HOP-92 NSCLC
OVCAR-3 ovarian = system: OVCAR-3 ovarian
SNB-75 CNS = system: SNB-75 CNS
MOLT-4 leukemia = system: MOLT-4 leukemia
M14 melanoma = system: M14 melanoma
HOP-62 NSCLC = system: HOP-62 NSCLC
SK-MEL-28 melanoma = system: SK-MEL-28 melanoma
NCI-H460 lung = system: NCI-H460 lung
HL-60(TB) leukemia = system: HL-60(TB) leukemia
A549 NSCLC = system: A549 NSCLC

## CN(C)CCNC(=O)OCCCCOc1cc(O)c2c(=O)cc(-c3ccccc3)oc2c1
NCI/ADR-RES ovarian
  GI50: 7.37 µM
  TGI: 34.2 µM
TK-10 renal
  GI50: 18.5 µM
  TGI: 33.2 µM
HCC-2998 colon
  GI50: 3.25 µM
  TGI: 10.3 µM
MDA-MB-468 breast
  GI50: 1.78 µM
  TGI: 4.16 µM
SNB-19 CNS
  GI50: 6.09 µM
  TGI: 20.3 µM
SK-MEL-2 melanoma
  GI50: 2.88 µM
  TGI: 9.08 µM
HS 578T breast
  GI50: 4.35 µM
  TGI: 23.4 µM
MDA-MB-231 breast
  GI50: 1.74 µM
  TGI: 3.78 µM
BT-549 breast
  GI50: 10.6 µM
  TGI: 22.7 µM
T-47D breast
  GI50: 1.88 µM
  TGI: 4.23 µM
HCT-116 colon
  GI50: 2.01 µM
  TGI: 4.85 µM
MCF7 breast
  GI50: 1.59 µM
  TGI: 3.76 µM
CAKI-1 renal
  GI50: 3.04 µM
  TGI: 12.2 µM
SW-620 colon
  GI50: 2.03 µM
  TGI: 4.49 µM
NCI-H522 lung
  GI50: 3.68 µM
  TGI: 16 µM
IGROV1 ovarian
  GI50: 15.7 µM
  TGI: 29.6 µM
NCI-H226 lung
  GI50: 10.1 µM
  TGI: 28.8 µM
DU-145 prostate
  GI50: 3.73 µM
  TGI: 13.9 µM
OVCAR-8 ovarian
  GI50: 10 µM
  TGI: 24.5 µM
SK-OV-3 ovarian
  GI50: 11.3 µM
  TGI: 23.7 µM
OVCAR-4 ovarian
  GI50: 10.1 µM
  TGI: 24.7 µM
NCI-H23 lung
  GI50: 7.23 µM
  TGI: 20.4 µM
A498 renal
  GI50: 2.21 µM
  TGI: 5.77 µM
786-0 renal
  GI50: 2 µM
  TGI: 4.72 µM
RXF 393 renal
  GI50: 1.64 µM
  TGI: 3.35 µM
UACC-257 melanoma
  GI50: 1.89 µM
  TGI: 3.61 µM
SR leukemia
  GI50: 1.95 µM
  TGI: 4.16 µM
CCRF-CEM leukemia
  GI50: 3.21 µM
  TGI: 10.7 µM
UO-31 renal
  GI50: 4.56 µM
  TGI: 16.9 µM
COLO 205 colon
  GI50: 1.84 µM
  TGI: 3.5 µM
U251 CNS
  GI50: 2.31 µM
  TGI: 6.74 µM
MALME-3M melanoma
  GI50: 1.57 µM
  TGI: 2.97 µM
HCT-15 colon
  GI50: 2.25 µM
  TGI: 5.8 µM
SK-MEL-5 melanoma
  GI50: 1.65 µM
  TGI: 3.03 µM
SF-295 CNS
  GI50: 2.14 µM
  TGI: 4.06 µM
EKVX NSCLC
  GI50: 7.87 µM
  TGI: 20.2 µM
SF-539 CNS
  GI50: 1.53 µM
  TGI: 2.93 µM
HT29 colon
  GI50: 1.88 µM
  TGI: 3.98 µM
OVCAR-5 ovarian
  GI50: 11.8 µM
  TGI: 24.2 µM
ACHN renal
  GI50: 1.92 µM
  TGI: 3.97 µM
LOX IMVI melanoma
  GI50: 1.79 µM
  TGI: 3.25 µM
MDA-MB-435
  GI50: 2.12 µM
  TGI: 4.66 µM
SN12C renal
  GI50: 13.8 µM
  TGI: 27.4 µM
K-562 leukemia
  GI50: 1.96 µM
  TGI: 5.98 µM
PC-3 prostate
  GI50: 4.35 µM
  TGI: 17.9 µM
SF-268 CNS
  GI50: 3.51 µM
  TGI: 16.2 µM
RPMI-8226 leukemia
  GI50: 2.97 µM
  TGI: 9.69 µM
UACC-62 melanoma
  GI50: 1.78 µM
  TGI: 3.43 µM
KM12 colon
  GI50: 6.09 µM
  TGI: 20.4 µM
HOP-92 NSCLC
  GI50: 4.35 µM
  TGI: 19.1 µM
OVCAR-3 ovarian
  GI50: 4.42 µM
  TGI: 16.3 µM
SNB-75 CNS
  GI50: 11 µM
  TGI: 24 µM
MOLT-4 leukemia
  GI50: 2.25 µM
  TGI: 6.24 µM
M14 melanoma
  GI50: 1.89 µM
  TGI: 3.78 µM
HOP-62 NSCLC
  GI50: 10.4 µM
  TGI: 24.4 µM
SK-MEL-28 melanoma
  GI50: 1.62 µM
  TGI: 3.1 µM
NCI-H460 lung
  GI50: 3.01 µM
  TGI: 10.1 µM
HL-60(TB) leukemia
  GI50: 1.64 µM
  TGI: 3.59 µM
A549 NSCLC
  GI50: 5.26 µM
  TGI: 19.3 µM
